Source: US11040981B2, “Pyrrolotriazine compounds and methods of inhibiting TAM kinases” (Syros Pharmaceuticals, Inc., priority 2017, dated 2021)

Tests used:
[1] = biological target: T1, AXL (Homo sapiens, UniProt P30530); assay: TR-FRET kinase activity assay, AXL; type: biochemical; details: ATP at Km, 60 minutes
T1 sequence (P30530 26-894): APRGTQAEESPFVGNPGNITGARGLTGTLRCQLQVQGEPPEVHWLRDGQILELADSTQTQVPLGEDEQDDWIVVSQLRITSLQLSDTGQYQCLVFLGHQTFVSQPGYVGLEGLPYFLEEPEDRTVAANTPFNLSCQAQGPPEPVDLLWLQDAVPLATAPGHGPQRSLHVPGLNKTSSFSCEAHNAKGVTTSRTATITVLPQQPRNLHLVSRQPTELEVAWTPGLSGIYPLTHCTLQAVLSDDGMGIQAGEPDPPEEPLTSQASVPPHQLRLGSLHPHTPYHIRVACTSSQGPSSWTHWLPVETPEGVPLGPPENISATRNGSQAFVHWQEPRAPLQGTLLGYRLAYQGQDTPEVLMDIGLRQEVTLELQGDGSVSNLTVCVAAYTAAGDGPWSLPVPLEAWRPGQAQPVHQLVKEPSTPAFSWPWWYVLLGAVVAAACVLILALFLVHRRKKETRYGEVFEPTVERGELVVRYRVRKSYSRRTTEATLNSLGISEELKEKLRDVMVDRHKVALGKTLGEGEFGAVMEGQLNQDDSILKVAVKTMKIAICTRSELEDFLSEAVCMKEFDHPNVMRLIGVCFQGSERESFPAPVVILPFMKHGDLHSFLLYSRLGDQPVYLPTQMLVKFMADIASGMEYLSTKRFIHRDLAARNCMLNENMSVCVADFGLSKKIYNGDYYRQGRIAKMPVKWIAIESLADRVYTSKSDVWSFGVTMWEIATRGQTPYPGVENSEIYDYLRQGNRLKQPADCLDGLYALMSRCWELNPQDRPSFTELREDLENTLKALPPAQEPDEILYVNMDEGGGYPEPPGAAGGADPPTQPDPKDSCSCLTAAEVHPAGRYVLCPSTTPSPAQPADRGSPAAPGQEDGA
Method in brief: (§1)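 Each kinase phosphorylated a fluorescent-labelled tyrosine peptide in 50 mM HEPES pH 7.5, 10 mM MgCl2, 1 mM EGTA, 0.01% Brij 35, 1 mM DTT at RT, with ATP at Km for that enzyme. After 60 min, EDTA quench and Eu-anti-phosphotyrosine antibody (30 min, dark); IC50 from TR-FRET decrease.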

[2] = biological target: T2, FLT3 (Homo sapiens, UniProt P36888); assay: TR-FRET kinase activity assay, FLT3; type: biochemical; details: ATP at Km, 60 minutes
T2 sequence (P36888 27-993): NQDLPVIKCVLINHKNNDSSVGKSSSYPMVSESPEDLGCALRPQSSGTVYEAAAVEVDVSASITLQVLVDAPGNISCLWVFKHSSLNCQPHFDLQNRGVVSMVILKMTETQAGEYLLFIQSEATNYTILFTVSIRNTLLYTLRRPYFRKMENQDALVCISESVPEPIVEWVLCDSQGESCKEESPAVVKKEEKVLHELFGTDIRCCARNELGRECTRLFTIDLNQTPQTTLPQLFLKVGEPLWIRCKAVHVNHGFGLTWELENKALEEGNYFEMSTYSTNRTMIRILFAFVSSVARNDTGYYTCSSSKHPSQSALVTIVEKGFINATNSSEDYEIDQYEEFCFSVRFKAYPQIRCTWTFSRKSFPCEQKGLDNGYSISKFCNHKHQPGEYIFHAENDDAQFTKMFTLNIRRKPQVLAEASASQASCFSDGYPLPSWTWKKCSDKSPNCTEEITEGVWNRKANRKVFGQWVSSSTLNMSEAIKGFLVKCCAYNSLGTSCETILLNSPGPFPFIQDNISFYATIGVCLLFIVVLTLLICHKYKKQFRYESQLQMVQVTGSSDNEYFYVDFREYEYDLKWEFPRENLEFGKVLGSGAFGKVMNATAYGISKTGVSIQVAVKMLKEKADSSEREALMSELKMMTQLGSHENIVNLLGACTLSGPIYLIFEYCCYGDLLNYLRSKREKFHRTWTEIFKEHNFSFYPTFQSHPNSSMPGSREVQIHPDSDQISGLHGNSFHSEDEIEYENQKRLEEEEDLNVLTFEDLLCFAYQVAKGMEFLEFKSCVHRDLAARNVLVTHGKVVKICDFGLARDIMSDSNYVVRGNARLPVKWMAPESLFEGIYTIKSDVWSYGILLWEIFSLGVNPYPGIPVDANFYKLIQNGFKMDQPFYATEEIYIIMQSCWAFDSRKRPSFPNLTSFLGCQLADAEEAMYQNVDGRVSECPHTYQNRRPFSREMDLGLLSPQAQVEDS
Method in brief: as §1

Row | Compound | IC50 [1] | IC50 [2]
1 | COC[C@H](C)Nc1ncc2c(N3CCCC3=O)cc([C@H]3CC[C@H](O)CC3)n2n1 [Compound 177] | 1000 to 10000 nM | 1000 to 10000 nM
2 | COC[C@H](C)Nc1ncc2c(N3CC4(COC4)CC3=O)cc([C@H]3CC[C@H](O)CC3)n2n1 [Compound 178] | 1000 to 10000 nM | 1000 to 10000 nM
3 | COC[C@H](C)Nc1ncc2c(-c3cccc(CN4CCCC4)c3)cc([C@H]3CC[C@H](O)CC3)n2n1 [Compound 179] | 100 to 1000 nM | 100 to 1000 nM
4 | COCC(C)Nc1ncc2c(-c3ccc(C(C)N4CCOCC4)cc3)cc(C3CCC(O)CC3)n2n1 (stereo not drawn) [Compound 181] | 100 to 1000 nM | ≤ 100 nM
5 | COCC(C)Nc1ncc2c(-c3ccc(C(C)N4CCOCC4)cc3)cc(C3CCC(O)CC3)n2n1 (stereo not drawn) [Compound 182] | ≤ 100 nM | ≤ 100 nM
6 | COC[C@H](C)Nc1ncc2c(-c3ccnc(C)c3)cc([C@H]3CC[C@@H](O)CC3)n2n1 [Compound 183] | 100 to 1000 nM | 1000 to 10000 nM
7 | COC[C@H](C)Nc1ncc2c(-c3ccc(C4(N5CCOCC5)CC4)cc3)cc([C@H]3CC[C@H](O)CC3)n2n1 [Compound 184] | 100 to 1000 nM | 100 to 1000 nM
8 | COC[C@H](C)Nc1ncc2c(-c3cnn(Cc4nnc(C)s4)c3)cc([C@H]3CC[C@H](O)CC3)n2n1 [Compound 596] | ≤ 100 nM | 100 to 1000 nM
9 | C[C@@H](COC(F)F)Nc1ncc2c(-c3ccnc(N4CCO[C@@H](C(C)(C)O)C4)c3)cc([C@H]3CC[C@H](O)CC3)n2n1 [Compound 597] | ≤ 100 nM | 100 to 1000 nM
10 | C[C@@H](COC(F)F)Nc1ncc2c(-c3ccnc(N4CCOC(C(C)(C)O)C4)c3)cc([C@H]3CC[C@H](O)CC3)n2n1 (stereo partly drawn) [Compound 598] | ≤ 100 nM | 100 to 1000 nM
11 | COC[C@H](C)Nc1ncc2c(-c3cnn(C(C)(C)c4nnc(C(F)F)o4)c3)cc([C@H]3CC[C@H](O)CC3)n2n1 [Compound 599] | ≤ 100 nM | 1000 to 10000 nM
12 | COC[C@H](C)Nc1ncc2c(-c3cnn(C(C)(C)c4nnc(C(C)C)o4)c3)cc([C@H]3CC[C@H](O)CC3)n2n1 [Compound 600] | ≤ 100 nM | 1000 to 10000 nM
13 | COC[C@H](C)Nc1ncc2c(-c3cnn(C(C)(C)c4nnc([C@@H]5CCCO5)o4)c3)cc([C@H]3CC[C@H](O)CC3)n2n1 [Compound 601] | ≤ 100 nM | 1000 to 10000 nM
14 | COC[C@H](C)Nc1ncc2c(-c3cnn(C(C)(C)c4nnc([C@H]5CCCO5)o4)c3)cc([C@H]3CC[C@H](O)CC3)n2n1 [Compound 602] | ≤ 100 nM | 1000 to 10000 nM
15 | COC[C@H](C)Nc1ncc2c(-c3cnn(C(C)(C)c4nnc(C(F)(F)F)o4)c3)cc([C@H]3CC[C@H](O)CC3)n2n1 [Compound 603] | ≤ 100 nM | 1000 to 10000 nM
16 | COC[C@H](C)Nc1ncc2c(-c3cnn(C(C)(C)c4nnco4)c3)cc([C@H]3CC[C@H](O)CC3)n2n1 [Compound 604] | ≤ 100 nM | 1000 to 10000 nM
17 | COC[C@H](C)Nc1ncc2c(-c3ccnc(N4CCC(C)(O)CC4)c3)cc([C@H]3CC[C@H](O)CC3)n2n1 [Compound 605] | ≤ 100 nM | 100 to 1000 nM
18 | COC[C@H](C)Nc1ncc2c([C@H]3CC[C@H](C(=O)N4CCN(C)CC4)CC3)cc([C@H]3CC[C@H](O)CC3)n2n1 [Compound 606] | ≤ 100 nM | 1000 to 10000 nM
19 | COC[C@H](C)Nc1ncc2c([C@H]3CC[C@@H](C(=O)N4CCN(C)CC4)CC3)cc([C@H]3CC[C@H](O)CC3)n2n1 [Compound 607] | ≤ 100 nM | 1000 to 10000 nM
20 | C[C@@H](CC(F)(F)F)Nc1ncc2c(-c3cnn(C(C)(C)C(=O)N4CC5(COC5)C4)c3)cc([C@H]3CC[C@H](O)CC3)n2n1 [Compound 608] | ≤ 100 nM | ≤ 100 nM

Row | Compound | IC50 [1] | IC50 [2]
21 | C[C@@H](CC(F)(F)F)Nc1ncc2c(-c3cnn(C(C)(C)C(=O)C4COC4)c3)cc([C@H]3CC[C@@](C)(O)CC3)n2n1 [Compound 609] | ≤ 100 nM | ≤ 100 nM
22 | C[C@@H](CC(F)(F)F)Nc1ncc2c(-c3cnn(C(C)(C)C(=O)C4COC4)c3)cc([C@H]3CC[C@](C)(O)CC3)n2n1 [Compound 610] | ≤ 100 nM | ≤ 100 nM
23 | COCC(C)Nc1ncc2c(-c3ccc(C(C)(C)c4nnc(C)o4)s3)cc(C3CCC(O)CC3)n2n1 (stereo not drawn) [Compound 611] | ≤ 100 nM | 100 to 1000 nM
24 | COC[C@H](C)Nc1ncc2c(-c3cnn(C(C)(C)C(=O)N4CCCC4)c3)cc([C@H]3CC[C@H](O)CC3)n2n1 [Compound 612] | ≤ 100 nM | 100 to 1000 nM
25 | C[C@@H](COC(F)F)Nc1ncc2c(-c3cnn(C(C)(C)C(=O)N4CC5(COC5)C4)c3)cc([C@H]3CC[C@H](O)CC3)n2n1 [Compound 613] | ≤ 100 nM | ≤ 100 nM
26 | COC[C@H](C)Nc1ncc2c(-c3cnn(C4COC4)c3)cc([C@H]3CC[C@H](O)C(F)(F)C3)n2n1 [Compound 614] | ≤ 100 nM | 100 to 1000 nM
27 | CCC1(O)CCC(c2cc(-c3cnn(C4COC4)c3)c3cnc(NC(C)COC)nn23)CC1 (stereo not drawn) [Compound 615] | ≤ 100 nM | 100 to 1000 nM
28 | CC[C@]1(O)CC[C@@H](c2cc(-c3cnn(C4COC4)c3)c3cnc(N[C@@H](C)COC)nn32)CC1 [Compound 616] | ≤ 100 nM | 100 to 1000 nM
29 | COC[C@H](C)Nc1ncc2c(-c3cnn(C4COC4)c3)cc([C@H]3CC[C@](O)(C(C)C)CC3)n2n1 [Compound 617] | ≤ 100 nM | 100 to 1000 nM
30 | COC[C@H](C)Nc1ncc2c(-c3cnn(C4COC4)c3)cc([C@H]3CC[C@@](O)(C(C)C)CC3)n2n1 [Compound 618] | ≤ 100 nM | 100 to 1000 nM
31 | COC[C@H](C)Nc1ncc2c(-c3ccnc(C(C)(C)O)c3)cc([C@H]3CC[C@H](O)CC3)n2n1 [Compound 619] | ≤ 100 nM | 100 to 1000 nM
32 | COC[C@H](C)Nc1ncc2c(-c3cnn(C(C)(C)C(=O)N4CCC(C)(O)C4)c3)cc([C@H]3CC[C@H](O)CC3)n2n1 (stereo partly drawn) [Compound 620] | ≤ 100 nM | 1000 to 10000 nM
33 | COC[C@H](C)Nc1ncc2c(-c3cnn(C(C)(C)C(=O)N4CCCC(C)(O)C4)c3)cc([C@H]3CC[C@H](O)CC3)n2n1 (stereo partly drawn) [Compound 621] | ≤ 100 nM | 100 to 1000 nM
34 | COC[C@H](C)Nc1ncc2c(-c3cnn(C(C)(C)C(=O)N4CC(C)(O)C4)c3)cc([C@H]3CC[C@H](O)CC3)n2n1 [Compound 622] | ≤ 100 nM | 1000 to 10000 nM
35 | COC[C@H](C)Nc1ncc2c(-c3cnn(C(C)(C)c4nc(C)co4)c3)cc([C@H]3CC[C@H](O)CC3)n2n1 [Compound 623] | ≤ 100 nM | 1000 to 10000 nM
36 | COC[C@H](C)Nc1ncc2c(-c3cnn(C4COC4)c3)cc([C@H]3CCc4[nH]ncc4C3)n2n1 [Compound 624] | ≤ 100 nM | ≤ 100 nM
37 | COC[C@H](C)Nc1ncc2c(-c3cnn(C(C)(C)c4nnc(C)s4)c3)cc([C@H]3CC[C@H](O)CC3)n2n1 [Compound 625] | ≤ 100 nM | 100 to 1000 nM
38 | C[C@@H](CC(F)(F)F)Nc1ncc2c(-c3cnn(C(C)(C)C(=O)N4CCN(C)CC4)c3)cc(C3CCC(O)CC3)n2n1 (stereo partly drawn) [Compound 626] | ≤ 100 nM | ≤ 100 nM
39 | COC[C@H](C)Nc1ncc2c(-c3ccnc(S(C)(=O)=O)c3)cc(C3CCC(O)CC3)n2n1 (stereo partly drawn) [Compound 627] | ≤ 100 nM | 1000 to 10000 nM
